Results on four compounds are retold here after PubChem BioAssay AID720603 (Broad Institute, 2013).

Results filed as inconclusive are left out.

The subject of this assay is C2C12 mouse myoblast viability, CellTiter-Glo ATP, 8-48 h. The experiment in a line: C2C12 myoblast ATP-based viability loss, dose response, cytotoxicity control for HRAS target identification, cell-based, CellTiter-Glo ATP luminescence, 8/24/48 h, dry powder (AID 720603).

In the case of `COC(=O)c1ccc([C@@H]2c3[nH]c4ccccc4c3C[C@@H](C(=O)OC)N2C(=O)CCl)cc1`, the AC50 reads like this: (measured here: 8 h treatment) 0.597 µM; (measured here: 24 h treatment) 0.0212 µM; (measured here: 48 h treatment) 0.0806 µM.
The corresponding values for `CC(C)(C)OC(=O)NCCOCCOCCOc1ccc(N(C(=O)CCl)C(C(=O)NCCc2ccccc2)c2cccs2)cc1Cl` (stereo unspecified) are 1.38 µM, 0.161 µM and 0.388 µM.
On to `C#CCCCC(=O)NCCOCCOCCOc1ccc(N(C(=O)CCl)C(C(=O)NCCc2ccccc2)c2cccs2)cc1Cl` (stereo unspecified), for which the AC50 by setting is: (measured here: 24 h treatment) 1.33 µM; (measured here: 48 h treatment) 2.62 µM.
As to `COc1ccc(N(C(=O)CCl)C(C(=O)NCCc2ccccc2)c2cccs2)cc1Cl` (stereo unspecified), the AC50 is, setting by setting: (measured here: 8 h treatment) 17.8 µM; (measured here: 24 h treatment) 0.108 µM; (measured here: 48 h treatment) 0.311 µM.
